Data as given in ChEMBL document CHEMBL1155386, “Synthesis and evaluation of 2-pyridylbenzothiazole, 2-pyridylbenzoxazole and 2-pyridylbenzofuran derivatives as 11C-PET imaging agents for beta-amyloid plaques” (Bioorg Med Chem Lett, 2010).
Calls of active or inactive are those of the source. The rule behind the calls is not given here.

Columns and labels:
Mus musculus = assay: Ex vivo binding affinity to amyloid beta (1 to 40) of APP/PS1 transgenic mouse brain at 10.3 nmol/kg, iv after 10 mins by autoradiography; type: functional, organism-based; conditions: tested as the 3H-labelled form
[1] = target: T1, Amyloid-beta precursor protein (Homo sapiens, UniProt P05067); assay: Binding affinity to Abeta (1 to 40) in brain cortex of patient with Alzheimer's disease by autoradiography relative to non-specific unlabelled PIB binding; type: tissue-based; conditions: tested as the 3H-labelled form
T1 sequence (P05067 whole entry): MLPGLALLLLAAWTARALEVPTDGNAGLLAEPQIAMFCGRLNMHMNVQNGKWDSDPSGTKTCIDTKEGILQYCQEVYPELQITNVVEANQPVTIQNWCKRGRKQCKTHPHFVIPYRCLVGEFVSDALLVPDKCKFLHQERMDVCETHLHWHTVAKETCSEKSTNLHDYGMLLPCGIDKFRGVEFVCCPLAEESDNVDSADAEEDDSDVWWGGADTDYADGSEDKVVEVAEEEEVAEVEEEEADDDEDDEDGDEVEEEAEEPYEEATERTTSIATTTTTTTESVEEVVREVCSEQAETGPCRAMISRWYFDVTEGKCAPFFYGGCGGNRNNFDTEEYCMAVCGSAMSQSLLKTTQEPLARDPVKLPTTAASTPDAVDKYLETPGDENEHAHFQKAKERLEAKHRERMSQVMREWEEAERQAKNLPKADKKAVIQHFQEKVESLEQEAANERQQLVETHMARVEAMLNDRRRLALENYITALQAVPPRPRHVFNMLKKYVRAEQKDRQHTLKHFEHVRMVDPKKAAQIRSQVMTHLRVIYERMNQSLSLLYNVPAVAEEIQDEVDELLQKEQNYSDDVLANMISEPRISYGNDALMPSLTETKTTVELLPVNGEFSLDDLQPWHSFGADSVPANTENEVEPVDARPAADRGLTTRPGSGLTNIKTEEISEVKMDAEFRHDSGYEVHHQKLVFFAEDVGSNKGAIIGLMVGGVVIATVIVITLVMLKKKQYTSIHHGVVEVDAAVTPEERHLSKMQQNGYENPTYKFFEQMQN

[2] = target: T1, Amyloid-beta precursor protein; assay: Displacement of [3H]PIB from human amyloid beta (1 to 40) after 30 mins by liquid scintillation counting
[3] = Lipophilicity, log D of the compound; type: physicochemical; conditions: octanol/water

Structure (SMILES) | Activity (Mus musculus) | Activity [1] | IC50 [2] | logD [3]
CNc1ccc(-c2nc3ccc(O)cc3s2)cn1 | Active | Active | – | –
[3H]C([3H])([3H])N(c1ncc(-c2nc3ccc(O)cc3o2)cn1)C([3H])([3H])[3H] | – | – | 75 nM | 1.8
[3H]C([3H])([3H])N(c1ccc(-c2nc3ccc(O)cc3o2)cn1)C([3H])([3H])[3H] | – | – | 85 nM | 1.9
CNc1ncc(-c2nc3ccc(O)cc3s2)cn1 | – | – | 267 nM | 0.9
CNc1ccc(-c2nc3ccc(O)cc3o2)cn1 | Active | Active | – | –
[3H]C([3H])([3H])N(c1ccc(-c2nc3ccc(OC)cc3o2)cn1)C([3H])([3H])[3H] | – | – | 204 nM | 3.7
CN(C)c1ccc(-c2nc3ccc(O)cc3s2)cn1 | – | inactive | – | –
CNc1ccc(-c2nc3ccc(O)cc3s2)cc1 | Active | – | – | –
COc1ccc2nc(-c3ccc(N(C)C)nc3)oc2c1 | – | inactive | – | –
COc1ccc2nc(-c3ccc(N(C)C)nc3)sc2c1 | – | – | 81 nM | 4.2
[3H]N(c1ccc(-c2nc3ccc(O)cc3o2)cn1)C([3H])([3H])[3H] | – | – | 182 nM | 1.3
CN(C)c1ccc(-c2nc3cc(O)ccc3o2)cn1 | – | – | 137 nM | 2.2
CNc1ccc(-c2nc3ccc(OC)cc3s2)cn1 | – | inactive | – | –
CNc1ccc(-c2nc3ccc(OC)cc3o2)cn1 | – | – | – | 2.7
CNc1ccc(-c2nc3ccc(C(N)=O)cc3s2)cn1 | – | – | 85 nM | 0.5

The remaining lines, values ahead:

Activity (Mus musculus) | Activity [1] | IC50 [2] | logD [3] | Structure (SMILES)
– | – | 41 nM | 2.2 | CN(C)c1ncc(-c2nc3ccc(O)cc3s2)cn1
– | – | 33 nM | 2.8 | COc1ccc2cc(-c3ccc(C(N)=O)cn3)oc2c1
– | – | 19 nM | 2.4 | [3H]C([3H])([3H])N(c1ccc(-c2nc3ccc(O)cc3s2)cn1)C([3H])([3H])[3H]
– | – | 66 nM | 3.8 | CNc1ccc(-c2cc3ccc(OC)cc3o2)cn1
– | – | 58 nM | 3.2 | [3H]N(c1ccc(-c2nc3ccc(OC)cc3s2)cn1)C([3H])([3H])[3H]
– | – | 74 nM | 1.5 | CNc1ccc(-c2nc3cc(O)ccc3s2)cn1
– | – | 58 nM | 1.8 | [3H]N(c1ccc(-c2nc3ccc(O)cc3s2)cn1)C([3H])([3H])[3H]
– | – | 60 nM | 1.7 | COc1ccc2cc(-c3ccc(C(N)=O)nc3)oc2c1
– | – | 35 nM | 1.7 | CNc1ccc2nc(-c3ccc(C(N)=O)nc3)sc2c1
– | – | 45 nM | 2 | CNc1ccc(-c2cc3ccc(O)cc3o2)cn1
